{
  "source": "paper PMC7041945",
  "about": "“Misfolded proteins bind and activate death receptor 5 to trigger apoptosis during unresolved endoplasmic reticulum stress” (eLife, 2020)",
  "key": {"[1]": {"system": "DR5", "test": "GFP immunoprecipitation: DR5 (FADD, caspase 8) recovered with GFP-tagged protein, Western blot", "format": "cell-based, Homo sapiens", "settings": "for fraction of DR5 IP'ed: GFP IP", "experimental": "15 cm dishes were seeded with 4 million HCT116 cells and allowed to recover for 18 hr prior to transfection. Samples were then transfected for 24 hr with the GFP-tagged ER trafficked protein, cytosolic GFP, or empty vector. To harvest apoptotic and living cells for each sample, all media and washes were collected. Cells were scraped in 2 ml of cold PBS and combined with the media and washes. Samples were centrifuged to pellet cells, washed with 1 ml cold PBS, and flash frozen in liquid N2 prior to lysis.\nThe cell pellets were resuspended in 750 μl of 30 mM HEPES pH 7.2, 150 mM NaCl, 1% Triton X-100 with 1x Roche protease inhibitor cocktail (if used subsequently for caspase glo 8 assay) or with 5x Roche protease inhibitor cocktail (if used for immunoblotting). The cells were lysed by mechanical shearing through a 25G needle for 13–15 plunges followed by incubation on ice for 30 min. The lysate was centrifuged at 2000xg for 5 min to remove debris and then incubated with 30 μl of GFP-Trap magnetic agarose beads (Chromotek gtma-20) for 4 hr at 4°C. The beads were then washed with 750 μl of lysis buffer for 10 min at 4°C for three rounds.\nFor Western blots, samples were eluted by adding 35 μl of non-reducing SDS gel loading buffer (50 mM Tris-HCl (pH 6.8), 2% SDS, 0.1% bromophenol blue, 10% glycerol) and incubated for 10 min at 70°C. The beads were then magnetically removed from the eluted sample before adding DTT to a final concentration of 25 mM. The entire sample was loaded onto the gel and immunoblotted for DR5, caspase 8, and GFP, in that order."}, "[2]": {"system": "CHOP, BiP, and DR5 mRNA in HCT116 cells", "test": "qPCR of UPR target transcripts (CHOP, BiP, DR5)", "format": "cell-based, Homo sapiens", "settings": "for 2^-(deltaCq) CHOP / 2^-(deltaCq) DR5 total / Cq CHOP / Cq DR5 total / Cq(sample) - avg Cq(GAPDH), CHOP / Cq(sample) - avg Cq(GAPDH), DR5 total / avg. fold induction CHOP / avg. fold induction DR5 total / fold induction CHOP / fold induction DR5 total: Rep 2; for avg. fold induction CHOP / avg. fold induction DR5 total / fold induction CHOP / fold induction DR5 total: vs 24 hr cytoGFP (empty traffo)", "experimental": "Cells were grown in 6-well plates and harvested with 0.5 ml of TRIzol reagent (Life Technologies) per manufacturer’s protocol to extract RNA. For cDNA synthesis, 500 ng of total RNA was reverse transcribed with 2 μl of the SuperScript VILO master mix (Life Technologies # 11755050) in a total reaction volume of 10 μl following the manufacturer’s protocol for reaction temperature and duration. The reverse transcription product was diluted to 200 μl with 10 mM Tris-HCl pH 8.2 and used at 1:100 dilution for subsequent RT-PCR reactions.\nPCR samples were prepared as described by manufacturer’s protocols from iQ SYBR Green Supermix (BioRad #17088800).\nFor each experiment, qRT-PCR reactions were set up in triplicate and run using a CFX96 Real Time System (Bio-Rad). Quantitation cycles were determined with CFX Manager 3.0 software (Bio-Rad) and then normalized to GAPDH as an internal control."}, "[3]": {"settings": "1000 ng plasmid, sheet Rep 1, mean of 3 replicates"}},
  "data": [
    {"substance": "RHO-GFP: GFP-tagged rhodopsin expressed from plasmid", "values": [
      {"measurement": "fraction of DR5 IP'ed", "setting": "[1]; sheet 2018-04-13 rep 2", "value": 0.05356},
      {"measurement": "fraction of DR5 IP'ed", "setting": "[1]; sheet 2018-09-20 rep 1", "value": 0.05459},
      {"measurement": "fraction IP'ed", "setting": "[1]; Rep 1 (second series)", "value": 0.05356},
      {"measurement": "fraction IP'ed", "setting": "[1]; Rep 2 (second series)", "value": 0.05459},
      {"measurement": "% IP'ed", "setting": "[1]; average of all replicates", "value": 5.408, "unit": "%"},
      {"measurement": "fraction IP'ed, average", "setting": "[1]; average of all replicates", "value": 0.05408},
      {"measurement": "Mean ± SEM (fraction IP'ed)", "setting": "[1]; unpaired t test sheet, GFP n=5, MPZ n=3, INS n=2, RHO n=2", "value": "0.05408 ± 0.0005162, n=2"},
      {"measurement": "95% confidence interval (difference between means)", "setting": "[1]; vs. GFP, fraction IP'ed", "value": "0.01226 to 0.07547"},
      {"measurement": "Difference between means", "setting": "[1]; vs. GFP, fraction IP'ed, ± SEM", "value": "0.04386 ± 0.01229"},
      {"measurement": "2^-(deltaCq) for GFP norm to GAPDH, avg", "setting": "[2]; 1000 ng plasmid, sheet Rep 1, mean", "value": 55.6234},
      {"measurement": "BiP avg fold induction relative to empty traffo", "setting": "[2]; [3]", "value": 1.525},
      {"measurement": "CHOP avg fold induction relative to empty traffo", "setting": "[2]; [3]", "value": 2.086},
      {"measurement": "DR5 total avg fold induction relative to empty traffo", "setting": "[2]; [3]", "value": 1.336},
      {"measurement": "GAPDH avg fold induction relative to empty traffo", "setting": "[2]; [3]", "value": 1.003},
      {"measurement": "2^-(deltaCq) CHOP", "setting": "[2]; 3 hr, replicate 1", "value": 0.04356},
      {"measurement": "2^-(deltaCq) DR5 total", "setting": "[2]; 3 hr, replicate 1", "value": 0.02287},
      {"measurement": "Cq CHOP", "setting": "[2]; 3 hr, replicate 1", "value": 24.2586},
      {"measurement": "Cq DR5 total", "setting": "[2]; 3 hr, replicate 1", "value": 25.1882},
      {"measurement": "Cq(sample) - avg Cq(GAPDH), CHOP", "setting": "[2]; 3 hr, replicate 1", "value": 4.521},
      {"measurement": "Cq(sample) - avg Cq(GAPDH), DR5 total", "setting": "[2]; 3 hr, replicate 1", "value": 5.45},
      {"measurement": "2^-(deltaCq) CHOP", "setting": "[2]; 3 hr, replicate 2", "value": 0.03694},
      {"measurement": "2^-(deltaCq) DR5 total", "setting": "[2]; 3 hr, replicate 2", "value": 0.02336},
      {"measurement": "Cq CHOP", "setting": "[2]; 3 hr, replicate 2", "value": 24.4965},
      {"measurement": "Cq DR5 total", "setting": "[2]; 3 hr, replicate 2", "value": 25.1574},
      {"measurement": "Cq(sample) - avg Cq(GAPDH), CHOP", "setting": "[2]; 3 hr, replicate 2", "value": 4.759},
      {"measurement": "Cq(sample) - avg Cq(GAPDH), DR5 total", "setting": "[2]; 3 hr, replicate 2", "value": 5.42},
      {"measurement": "2^-(deltaCq) CHOP", "setting": "[2]; 3 hr, replicate 3", "value": 0.03617},
      {"measurement": "2^-(deltaCq) DR5 total", "setting": "[2]; 3 hr, replicate 3", "value": 0.01987},
      {"measurement": "Cq CHOP", "setting": "[2]; 3 hr, replicate 3", "value": 24.5271},
      {"measurement": "Cq DR5 total", "setting": "[2]; 3 hr, replicate 3", "value": 25.391},
      {"measurement": "Cq(sample) - avg Cq(GAPDH), CHOP", "setting": "[2]; 3 hr, replicate 3", "value": 4.789},
      {"measurement": "Cq(sample) - avg Cq(GAPDH), DR5 total", "setting": "[2]; 3 hr, replicate 3", "value": 5.653},
      {"measurement": "avg. fold induction CHOP", "setting": "[2]; 3 hr, mean of 3 replicates", "value": 1.784},
      {"measurement": "avg. fold induction DR5 total", "setting": "[2]; 3 hr, mean of 3 replicates", "value": 0.7693},
      {"measurement": "fold induction CHOP", "setting": "[2]; 3 hr, replicate 1", "value": 1.9981},
      {"measurement": "fold induction DR5 total", "setting": "[2]; 3 hr, replicate 1", "value": 0.7985},
      {"measurement": "fold induction CHOP", "setting": "[2]; 3 hr, replicate 2", "value": 1.694},
      {"measurement": "fold induction DR5 total", "setting": "[2]; 3 hr, replicate 2", "value": 0.8157},
      {"measurement": "fold induction CHOP", "setting": "[2]; 3 hr, replicate 3", "value": 1.659},
      {"measurement": "fold induction DR5 total", "setting": "[2]; 3 hr, replicate 3", "value": 0.6938},
      {"measurement": "2^-(deltaCq) CHOP", "setting": "[2]; 7 hr, replicate 1", "value": 0.1012},
      {"measurement": "2^-(deltaCq) DR5 total", "setting": "[2]; 7 hr, replicate 1", "value": 0.0421},
      {"measurement": "Cq CHOP", "setting": "[2]; 7 hr, replicate 1", "value": 22.9621},
      {"measurement": "Cq DR5 total", "setting": "[2]; 7 hr, replicate 1", "value": 24.2279},
      {"measurement": "Cq(sample) - avg Cq(GAPDH), CHOP", "setting": "[2]; 7 hr, replicate 1", "value": 3.304},
      {"measurement": "Cq(sample) - avg Cq(GAPDH), DR5 total", "setting": "[2]; 7 hr, replicate 1", "value": 4.57},
      {"measurement": "2^-(deltaCq) CHOP", "setting": "[2]; 7 hr, replicate 2", "value": 0.09032},
      {"measurement": "2^-(deltaCq) DR5 total", "setting": "[2]; 7 hr, replicate 2", "value": 0.04029},
      {"measurement": "Cq CHOP", "setting": "[2]; 7 hr, replicate 2", "value": 23.1268},
      {"measurement": "Cq DR5 total", "setting": "[2]; 7 hr, replicate 2", "value": 24.2914},
      {"measurement": "Cq(sample) - avg Cq(GAPDH), CHOP", "setting": "[2]; 7 hr, replicate 2", "value": 3.4688},
      {"measurement": "Cq(sample) - avg Cq(GAPDH), DR5 total", "setting": "[2]; 7 hr, replicate 2", "value": 4.633},
      {"measurement": "2^-(deltaCq) CHOP", "setting": "[2]; 7 hr, replicate 3", "value": 0.09401},
      {"measurement": "2^-(deltaCq) DR5 total", "setting": "[2]; 7 hr, replicate 3", "value": 0.03735},
      {"measurement": "Cq CHOP", "setting": "[2]; 7 hr, replicate 3", "value": 23.069},
      {"measurement": "Cq DR5 total", "setting": "[2]; 7 hr, replicate 3", "value": 24.4008},
      {"measurement": "Cq(sample) - avg Cq(GAPDH), CHOP", "setting": "[2]; 7 hr, replicate 3", "value": 3.411},
      {"measurement": "Cq(sample) - avg Cq(GAPDH), DR5 total", "setting": "[2]; 7 hr, replicate 3", "value": 4.743},
      {"measurement": "avg. fold induction CHOP", "setting": "[2]; 7 hr, mean of 3 replicates", "value": 4.366},
      {"measurement": "avg. fold induction DR5 total", "setting": "[2]; 7 hr, mean of 3 replicates", "value": 1.393},
      {"measurement": "fold induction CHOP", "setting": "[2]; 7 hr, replicate 1", "value": 4.643},
      {"measurement": "fold induction DR5 total", "setting": "[2]; 7 hr, replicate 1", "value": 1.47}
    ]}
  ]
}
